According to patent US4985449A, “N-benzoyl-N-pyridyloxy phenyl urea compounds and pesticide compositions containing them” (Ishihara Sangyo Kaisha Ltd., priority 1986, dated 1991):

Assays:
Type in all cases: in vivo
[1] = system: house fly (Musca domestica); assay: Larvicidal test against larvae of house fly (Test Example 4); conditions: feed or water, 240 h, 10 ppm in feed, second instar larvae, 10th day after release, emerged adults counted
Description: Powder feed for test animals (manufactured by Oriental Kobo Kogyo K.K.) and bran were mixed in a weight ratio of 1:1 and pulverized, and 10 g of the mixture was packed in an ice cream cup. Each of the formulations containing the active ingredients, was dispersed in water, and 10 ml of the dispersion was added to the mixture in the ice cream cup and thoroughly mixed to adjust the concentration of the active ingredient to 10 ppm. Into the ice cream cup, 20 larvae of house fly (Musca domestica) in second instar were released, and kept in a constant temperature chamber with lightening at 26° C. On the 10th day after the release, the emerged adults were counted, and the mortality was calculated in accordance with the following equation. [formula]

[2] = system: house fly (Musca domestica); assay: Egg hatch inhibition test by the treatment of adults of house fly (Test Example 6); conditions: po, 100 μg/g in diet of adult females for 3 days, unhatched eggs assessed one day after collection, read-out: ratio of the egg hatch inhibition (REHI)
Description: Sugar and skim milk were mixed in a weight ratio of 1:1, and 2 g of the mixture was put into a Petri dish having a diameter of 5.5 cm. 0.5 ml of an acetone solution containing the active ingredient was added to the mixture in the Petri dish. After acetone evaporated, the treated mixture was thoroughly mixed, and the concentration of the active ingredient was adjusted to 100 μg/g. Twenty non-mating females of house fly (Musca domestica) were allowed to feed on the poisoned diet (the treated mixture) in a cage. After 3 days, the diet was changed to the untreated mixture, then 20 non-mating males were released into the cage for mating. On the 3rd day after release, a cup of the medium for rearing fly larvae was set in the cage for oviposition for 7 hours. The egg laid on the medium were collected and kept on the moistened filter paper in a Petri dish. One day later, unhatched eggs were assessed and the ratio of the egg hatch inhibition (REHI) was calculated by the following equation: [formula]

[3] = system: house mosquito (Cullex pipiens pallens); assay: Larvicidal test against larvae of house mosquito (Test Example 5); conditions: 216 h, 2.5 ppb, 9th day after release, 26° C.
Description: Two hundreds ml of a diluted solution containing 2.5 ppb of each active ingredient was poured into a jar and 20 larvae of house mosquito (Cullex pipiens pallens) were released into the jar. Then, the jar was kept in a constant temperature chamber with lightening at 26° C. Larvae were fed every other day with 1-2 mg of powdered feed. On the 9th day after the release, dead insects were counted, and the mortality was calculated in the same manner as in Test Example 2. The results are shown in […]

[4] = system: two-spotted spider mite (Tetranychus urticae); assay: Miticidal test against two-spotted spider mite (Test Example 1); conditions: 120 h, 5th day after treatment, larvae and nimphs on French bean, 26° C.
Description: Each formulation containing an active ingredient was dispersed in water to obtain a dispersion of each active ingredient having a concentration of 800 or 200 ppm. Each of French bean seedlings with only on primary leaf left, was transplanted to a cup having a diameter of 7 cm and a height of 4 cm. About 30 larvae and […] of two-spotted spider mite (Tetranychus urticae) were infested to the leaf of the French bean. Then, the French bean was dipped in the dispersion having the concentration of 800 ppm or 200 ppm for about 10 seconds, then dried in air and kept in a constant temperature chamber with lightening at 26° C. On the 5th day after the treatment, dead mites were counted, and the mortality was calculated by the following equation: [formula]

Row | Structure (SMILES) | mortality at 10 ppm [1] | inhibition at 100 µg/g [2] | mortality at 0.0025 ppm [3] | mortality at 800 ppm [4] | mortality at 200 ppm [4]
1 | COC(=O)c1cc(N(C)C(=O)NC(=O)c2c(F)cccc2F)cc(C)c1Oc1ncc(C(F)(F)F)cc1Cl [Compound No. 6] | 90% |  |  |  | 
2 | CN(C(=O)NC(=O)c1c(F)cccc1F)c1ccc(Oc2ncc(C(F)(F)F)cc2Cl)c(F)c1 [Compound No. 3, N-{4-[3-chloro-5-trifluoromethyl-2-pyridyloxy]-3-fluorophenyl}-N'-(2,6-difluorobenzoyl)-N-methylurea] |  | 88% | 100% |  | 
3 | CN(C(=O)NC(=O)c1c(F)cccc1F)c1ccc(Oc2ccc(C(F)(F)F)cc2Cl)c(F)c1 [Compound No. 4, N-{4-[2-chloro-4-trifluoromethylphenoxy]-3-fluorophenyl}-N'-(2,6-difluorobenzoyl)-N-methylurea] |  |  | 100% | 90% | 
4 | CN(C(=O)NC(=O)c1c(F)cccc1F)c1ccc(Oc2ccc(C(F)(F)F)cc2Cl)c(Cl)c1 [compound 12, N-[3-chloro-4-(2-chloro-4-trifluoromethylphenoxy)phenyl]-N'-(2,6-difluorobenzoyl)-N-methylurea] | 100% | 100% |  | 100% | 100%
5 | CN(C(=O)NC(=O)c1c(F)cccc1F)c1ccc(Oc2ccc(C(F)(F)F)cc2Cl)c(Cl)c1F [compound 13, N-[3-chloro-4-(2-chloro-4-trifluoromethylphenoxy)-2-fluorophenyl]-N'-(2,6-difluorobenzoyl)-N-methylurea] | 100% | 100% |  |  | 99%
6 | CN(C(=O)NC(=O)c1c(F)cccc1F)c1cc(Cl)c(Oc2ncc(C(F)(F)F)cc2Cl)c(Cl)c1 [Compound No. 1, N-[3,5-dichloro-4-(3-chloro-5-trifluoromethyl-2-pyridyloxy)phenyl]-N'-(2,6difluorobenzoyl)-N-methylurea] |  | 100% | 100% |  | 
7 | CN(C(=O)NC(=O)c1c(F)cccc1F)c1cc(F)c(-c2ccc(C(F)(F)F)cc2)cc1F [Compound No. 24] | 100% | 100% |  |  | 
8 | CN(C(=O)NC(=O)c1c(F)cccc1F)c1ccc(Oc2ncc(C(F)(F)F)cc2Cl)c(F)c1F [Compound No. 2, N-[4-(3-chloro-5-trifluoromethyl-2-pyridyloxy)-2,3-difluorophenyl]-N'-(2,6, -difluorobenzoyl)-N-methylurea] |  |  | 90% |  | 
